In patent US6525001B1, “Substituted pyrimidine and pyridine herbicides” (Mid-American Commercialization Corporation, priority 1997, dated 2003):

Assays:
Format in all cases: in vivo
[1] = system: broadleaf signalgrass (Brachiaria decumbens); test: Test B pre-/postemergence; design: key: 0 is no effect; 10 is complete control; conditions: for B. signalgrass plant response rating: Preemergence
In short: (§1)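 Response scores run from 0, meaning no effect, to 10, meaning complete control, assigned by eye relative to controls twelve to sixteen days after spraying. Treatment was both preemergence on planted seed and postemergence on plants at the 1- to 4-leaf stage.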

[2] = system: sugar beet (Beta vulgaris); test: Test B pre-/postemergence; design: key: 0 is no effect; 10 is complete control
In short: as §1

[3] = system: blackgrass (Alopecurus myosuroides); test: Test B pre-/postemergence; design: key: 0 is no effect; 10 is complete control; conditions: for Blackgrass plant response rating: Preemergence
In short: as §1

[4] = system: purple nutsedge (Cyperus rotundus); test: Test B pre-/postemergence; design: key: 0 is no effect; 10 is complete control
In short: as §1

[5] = system: rape (Brassica napus); test: Test B pre-/postemergence; design: key: 0 is no effect; 10 is complete control
In short: as §1

[6] = system: wild oat (Avena fatua); test: Test B pre-/postemergence; design: key: 0 is no effect; 10 is complete control
In short: as §1

[7] = system: corn (Zea mays); test: Test B pre-/postemergence; design: key: 0 is no effect; 10 is complete control; conditions: for Corn plant response rating: Preemergence
In short: as §1

[8] = system: velvetleaf (Abutilon theophrasti); test: Test B pre-/postemergence; design: key: 0 is no effect; 10 is complete control
In short: as §1

[9] = system: crabgrass (Digitaria sanguinalis); test: Test B pre-/postemergence; design: key: 0 is no effect; 10 is complete control; conditions: for Crabgrass plant response rating: Preemergence
In short: as §1

[10] = system: momingglory (Ipomoea hederacea); test: Test B pre-/postemergence; design: key: 0 is no effect; 10 is complete control
In short: as §1

[11] = system: soybean (Glycine max); test: Test B pre-/postemergence; design: key: 0 is no effect; 10 is complete control
In short: as §1

[12] = system: giant foxtail (Setaria faberii); test: Test B pre-/postemergence; design: key: 0 is no effect; 10 is complete control
In short: as §1

[13] = system: pigweed (Amaranthus retroflexus); test: Test B pre-/postemergence; design: key: 0 is no effect; 10 is complete control
In short: as §1

[14] = system: bedstraw (Galium aparine); test: Test B pre-/postemergence; design: key: 0 is no effect; 10 is complete control; conditions: for Bedstraw plant response rating: Preemergence
In short: as §1

[15] = system: wheat (Triticum aestivum); test: Test B pre-/postemergence; design: key: 0 is no effect; 10 is complete control
In short: as §1

[16] = system: cocklebur (Xanthium strumarium); test: Test B pre-/postemergence; design: key: 0 is no effect; 10 is complete control; conditions: for Cocklebur plant response rating: Preemergence
In short: as §1

[17] = system: rice (Oryza sativa); test: Test B flood test
In short: (§2)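 Each value is a visual injury score relative to controls, with 10 meaning complete control and 0 no effect. Evaluation took place twelve to sixteen days after the 2-leaf-stage plants were treated and kept in the greenhouse.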

[18] = system: duck salad (Heteranthera limosa); test: Test B flood test
In short: as §2

[19] = system: smallflower flatsedge (Cyperus difformis); test: Test B flood test
In short: as §2

[20] = system: bamyardgrass (Echinochloa crus-galli); test: Test B flood test
In short: as §2

[21] = Rate 250 g/ha, Postemergence (so in the source)
[22] = Rate 62 g/ha, Postemergence (flood test)
[23] = Rate 125 g/ha, Postemergence section (flood test species)
[24] = Rate 250 g/ha, Postemergence (flood test species)
[25] = Rate 125 g/ha, Postemergence, flood test

## Cc1cnc(-c2ccc(C#N)cc2)nc1Cc1cccc(C(F)(F)F)c1 [Compound 30]
[1]; Rate 62 g/ha, Postemergence
  Plant response rating, B. signalgrass: 1
[1]; Rate 62 g/ha
  B. signalgrass plant response rating: 1
[1]; Rate 125 g/ha, Postemergence
  Plant response rating, B. signalgrass: 2
[1]; Rate 125 g/ha
  B. signalgrass plant response rating: 4
[1]; Rate 250 g/ha, Postemergence
  Plant response rating, B. signalgrass: 2
[1]; Rate 250 g/ha, Postemergence as printed in head r139 (second section for compounds 26-50)
  Plant response rating, B. signalgrass: 6
[2]; Rate 62 g/ha, Postemergence
  Plant response rating, Sugarbeets: 10
[2]; Rate 62 g/ha, Preemergence
  Sugarbeets plant response rating: 6
[2]; Rate 125 g/ha, Postemergence
  Sugarbeets plant response rating: 10
[2]; Rate 125 g/ha, Preemergence
  Plant response rating, Sugarbeets: 9
[2]; Rate 250 g/ha, Postemergence
  Plant response rating, Sugarbeets: 10
[2]; [21]
  Plant response rating, Sugarbeets: 10
[3]; Rate 62 g/ha, Postemergence
  Plant response rating, Blackgrass: 0
[3]; Rate 62 g/ha
  Blackgrass plant response rating: 0
[3]; Rate 125 g/ha, Postemergence
  Plant response rating, Blackgrass: 1
[3]; Rate 125 g/ha
  Blackgrass plant response rating: 2
[3]; Rate 250 g/ha, Postemergence
  Plant response rating, Blackgrass: 1
[3]; [21]
  Plant response rating, Blackgrass: 2
[4]; Rate 62 g/ha, Postemergence
  Plant response rating, Nutsedge: 0
[4]; Rate 62 g/ha, Preemergence
  Nutsedge plant response rating: 0
[4]; Rate 125 g/ha, Postemergence
  Nutsedge plant response rating: 0
[4]; Rate 125 g/ha, Preemergence
  Nutsedge plant response rating: 0
[4]; Rate 250 g/ha, Postemergence
  Plant response rating, Nutsedge: 2
[4]; [21]
  Plant response rating, Nutsedge: 0
[5]; Rate 62 g/ha, Postemergence
  Plant response rating, Rape: 4
[5]; Rate 62 g/ha, Preemergence
  Rape plant response rating: 0
[5]; Rate 125 g/ha, Postemergence
  Rape plant response rating: 8
[5]; Rate 125 g/ha, Preemergence
  Rape plant response rating: 2
[5]; Rate 250 g/ha, Postemergence
  Plant response rating, Rape: 10
[5]; [21]
  Plant response rating, Rape: 3
[6]; Rate 62 g/ha, Postemergence
  Wild oats plant response rating: 1
[6]; Rate 62 g/ha, Preemergence
  Wild oats plant response rating: 1
[6]; Rate 125 g/ha, Postemergence
  Wild oats plant response rating: 2
[6]; Rate 125 g/ha, Preemergence
  Plant response rating, Wild oats: 1
[6]; Rate 250 g/ha, Postemergence
  Plant response rating, Wild oats: 2
[6]; [21]
  Plant response rating, Wild oats: 2
[7]; Rate 62 g/ha, Postemergence
  Plant response rating, Corn: 1
[7]; Rate 62 g/ha
  Corn plant response rating: 0
[7]; Rate 125 g/ha, Postemergence
  Plant response rating, Corn: 2
[7]; Rate 125 g/ha
  Corn plant response rating: 0
[7]; Rate 250 g/ha, Postemergence
  Plant response rating, Corn: 2
[7]; [21]
  Plant response rating, Corn: 0
[8]; Rate 62 g/ha, Postemergence
  Plant response rating, Velvetleaf: 5
[8]; Rate 62 g/ha, Preemergence
  Velvetleaf plant response rating: 1
[8]; Rate 125 g/ha, Postemergence
  Velvetleaf plant response rating: 6
[8]; Rate 125 g/ha, Preemergence
  Plant response rating, Velvetleaf: 2
[8]; Rate 250 g/ha, Postemergence
  Plant response rating, Velvetleaf: 8
[8]; [21]
  Plant response rating, Velvetleaf: 6
[9]; Rate 62 g/ha, Postemergence
  Plant response rating, Crabgrass: 1
[9]; Rate 62 g/ha
  Crabgrass plant response rating: 1
[9]; Rate 125 g/ha, Postemergence
  Plant response rating, Crabgrass: 1
[9]; Rate 125 g/ha
  Crabgrass plant response rating: 3
[9]; Rate 250 g/ha, Postemergence
  Plant response rating, Crabgrass: 7
[9]; [21]
  Plant response rating, Crabgrass: 8
[10]; Rate 62 g/ha, Postemergence
  Plant response rating, Morningglory: 2
[10]; Rate 62 g/ha, Preemergence
  Morningglory plant response rating: 1
[10]; Rate 125 g/ha, Postemergence
  Morningglory plant response rating: 5
[10]; Rate 125 g/ha, Preemergence
  Morningglory plant response rating: 1
[10]; Rate 250 g/ha, Postemergence
  Plant response rating, Morningglory: 9
[10]; [21]
  Plant response rating, Morningglory: 3
[11]; Rate 62 g/ha, Postemergence
  Plant response rating, Soybean: 3
[11]; Rate 62 g/ha, Preemergence
  Soybean plant response rating: 0
[11]; Rate 125 g/ha, Postemergence
  Soybean plant response rating: 3
[11]; Rate 125 g/ha, Preemergence
  Plant response rating, Soybean: 0
[11]; Rate 250 g/ha, Postemergence
  Plant response rating, Soybean: 6
[11]; [21]
  Plant response rating, Soybean: 0
[12]; Rate 62 g/ha, Postemergence
  Plant response rating, Giant foxtail: 1
[12]; Rate 62 g/ha, Preemergence
  Giant foxtail plant response rating: 1
[12]; Rate 125 g/ha, Postemergence
  Giant foxtail plant response rating: 1
[12]; Rate 125 g/ha, Preemergence
  Giant foxtail plant response rating: 5
[12]; Rate 250 g/ha, Postemergence
  Plant response rating, Giant foxtail: 2
[12]; [21]
  Plant response rating, Giant foxtail: 9
[13]; Rate 62 g/ha, Postemergence
  Plant response rating, Redroot pigweed: 7
[13]; Rate 62 g/ha, Preemergence
  Redroot pigweed plant response rating: 2
[13]; Rate 125 g/ha, Postemergence
  Redroot pigweed plant response rating: 9
[13]; Rate 125 g/ha, Preemergence
  Redroot pigweed plant response rating: 7
[13]; Rate 250 g/ha, Postemergence
  Plant response rating, Redroot pigweed: 9
[13]; [21]
  Plant response rating, Redroot pigweed: 10
[14]; Rate 62 g/ha, Postemergence
  Plant response rating, Bedstraw: 1
[14]; Rate 62 g/ha
  Bedstraw plant response rating: 3
[14]; Rate 125 g/ha, Postemergence
  Plant response rating, Bedstraw: 6
[14]; Rate 125 g/ha
  Bedstraw plant response rating: 10
[14]; Rate 250 g/ha, Postemergence
  Plant response rating, Bedstraw: 6
[14]; [21]
  Plant response rating, Bedstraw: 10
[15]; Rate 62 g/ha, Postemergence
  Wheat plant response rating: 1
[15]; Rate 62 g/ha, Preemergence
  Wheat plant response rating: 0
[15]; Rate 125 g/ha, Postemergence
  Wheat plant response rating: 2
[15]; Rate 125 g/ha, Preemergence
  Plant response rating, Wheat: 0
[15]; Rate 250 g/ha, Postemergence
  Plant response rating, Wheat: 2
[15]; [21]
  Plant response rating, Wheat: 0
[16]; Rate 62 g/ha, Postemergence
  Plant response rating, Cocklebur: 5
[16]; Rate 62 g/ha
  Cocklebur plant response rating: 0
[16]; Rate 125 g/ha, Postemergence
  Plant response rating, Cocklebur: 8
[16]; Rate 125 g/ha
  Cocklebur plant response rating: 0
[16]; Rate 250 g/ha, Postemergence
  Plant response rating, Cocklebur: 8
[16]; [21]
  Plant response rating, Cocklebur: 0
[17]; [22]
  Plant response rating, Rice: 1
[17]; [23]
  Rice plant response rating: 1
[17]; [24]
  Plant response rating, Rice: 2
[18]; [22]
  Plant response rating, Ducksalad: 3
[18]; [25]
  Plant response rating, Ducksalad: 4
[18]; [24]
  Plant response rating, Ducksalad: 5
[19]; [22]
  Plant response rating, S. Flatsedge: 4
[19]; [23]
  S. Flatsedge plant response rating: 6
[19]; [24]
  Plant response rating, S. Flatsedge: 8
[20]; [22]
  Plant response rating, Barnyardgrass: 3
[20]; [25]
  Plant response rating, Barnyardgrass: 3
[20]; [24]
  Plant response rating, Barnyardgrass: 4
